In the NIST ThermoML archive (doi:10.1021/je060271a):
“And” between values parts separate entries of the source, which are not always exact repeats. Identical values can stand only once.

Settings: 343.16 K, Liquid, Vibrating tube method

CCCCCC(=O)OCC(COC(=O)CCCCC)(COC(=O)CCCCC)COC(=O)CCCCC [pentaerythritol tetrahexanoate]
Settings	mass density
354.4 kPa	957.4 kg/m3 and 957.3 kg/m3
355.3 kPa	957.3 kg/m3
355.8 kPa	957.3 kg/m3
356.3 kPa	957.3 kg/m3
356.7 kPa	957.4 kg/m3
357 kPa	957.4 kg/m3
357.2 kPa	957.4 kg/m3
357.5 kPa	957.4 kg/m3
357.9 kPa	957.4 kg/m3
358.6 kPa	957.4 kg/m3
359.5 kPa	957.4 kg/m3
360.3 kPa	957.4 kg/m3
360.5 kPa	957.3 kg/m3
360.7 kPa	957.3 kg/m3
361.4 kPa	957.3 kg/m3
361.6 kPa	957.4 kg/m3
361.9 kPa	957.3 kg/m3
362.3 kPa	957.5 kg/m3
362.6 kPa	957.5 kg/m3
362.9 kPa	957.4 kg/m3
365.9 kPa	957.3 kg/m3 and 957.4 kg/m3
366.4 kPa	957.3 kg/m3
366.8 kPa	957.4 kg/m3
367.3 kPa	957.3 kg/m3
367.6 kPa	957.3 kg/m3
368 kPa	957.5 kg/m3
368.1 kPa	957.3 kg/m3
368.5 kPa	957.4 kg/m3
370.4 kPa	957.4 kg/m3
370.8 kPa	957.3 kg/m3
371.3 kPa	957.5 kg/m3
371.6 kPa	957.4 kg/m3
372 kPa	957.4 kg/m3
372.3 kPa	957.4 kg/m3
379.4 kPa	957.5 kg/m3
379.8 kPa	957.4 kg/m3
380.3 kPa	957.4 kg/m3
405.3 kPa	957.4 kg/m3
406 kPa	957.4 kg/m3
406.2 kPa	957.3 kg/m3
406.4 kPa	957.4 kg/m3
406.9 kPa	957.4 kg/m3
410.7 kPa	957.3 kg/m3
411.1 kPa	957.4 kg/m3
411.8 kPa	957.4 kg/m3
412.5 kPa	957.5 kg/m3
415.9 kPa	957.4 kg/m3
416.3 kPa	957.4 kg/m3
416.6 kPa	957.3 kg/m3
417.3 kPa	957.2 kg/m3
417.7 kPa	957.3 kg/m3
421.8 kPa	957.4 kg/m3
422.4 kPa	957.5 kg/m3
422.9 kPa	957.5 kg/m3
423.1 kPa	957.4 kg/m3
495.2 kPa	957.5 kg/m3
498.6 kPa	957.4 kg/m3
501.8 kPa	957.5 kg/m3
506.1 kPa	957.5 kg/m3
509.6 kPa	957.5 kg/m3
513.1 kPa	957.4 kg/m3
517.4 kPa	957.5 kg/m3
521.2 kPa	957.5 kg/m3
541.9 kPa	957.6 kg/m3
598.9 kPa	957.5 kg/m3
1360.7 kPa	958.2 kg/m3
1373.7 kPa	958.2 kg/m3
1386.7 kPa	958 kg/m3
1402 kPa	958.1 kg/m3
1499.4 kPa	958.2 kg/m3
1527.2 kPa	958.3 kg/m3
1543.9 kPa	958.2 kg/m3
1635.2 kPa	958.4 kg/m3
1649.9 kPa	958.4 kg/m3
1664.3 kPa	958.4 kg/m3
1682.1 kPa	958.4 kg/m3
2922.7 kPa	959.2 kg/m3
2945.6 kPa	959.4 kg/m3
3846.3 kPa	960.1 kg/m3
3871.7 kPa	960 kg/m3
3901.2 kPa	960.1 kg/m3
3926.1 kPa	960 kg/m3
3956.3 kPa	960.1 kg/m3
3981.7 kPa	960.2 kg/m3
9203.5 kPa	964.1 kg/m3
9234 kPa	964.1 kg/m3
9270 kPa	964.2 kg/m3
9300.6 kPa	964.1 kg/m3
9331.6 kPa	964.1 kg/m3
9596.7 kPa	964.4 kg/m3
9628.1 kPa	964.4 kg/m3
9666.2 kPa	964.4 kg/m3
9698 kPa	964.4 kg/m3
9736.5 kPa	964.4 kg/m3
9768.5 kPa	964.5 kg/m3
9839 kPa	964.5 kg/m3
9871.9 kPa	964.6 kg/m3
9905.6 kPa	964.5 kg/m3
9938.9 kPa	964.7 kg/m3
9971.6 kPa	964.5 kg/m3
10011 kPa	964.7 kg/m3
10044 kPa	964.7 kg/m3
10084 kPa	964.7 kg/m3
10117 kPa	964.9 kg/m3
10151 kPa	964.7 kg/m3
10192 kPa	965 kg/m3
10225 kPa	964.9 kg/m3
10259 kPa	964.9 kg/m3
10294 kPa	964.9 kg/m3
10335 kPa	964.8 kg/m3
10369 kPa	965 kg/m3
10404 kPa	965 kg/m3
10446 kPa	965 kg/m3
10481 kPa	964.9 kg/m3
10516 kPa	964.9 kg/m3
10551 kPa	965 kg/m3
10593 kPa	965.2 kg/m3
10628 kPa	965.1 kg/m3
10670 kPa	965.1 kg/m3
10705 kPa	965.2 kg/m3
10741 kPa	965.2 kg/m3
10777 kPa	965.2 kg/m3
10820 kPa	965.2 kg/m3
10856 kPa	965.5 kg/m3
10893 kPa	965.4 kg/m3
10929 kPa	965.3 kg/m3
10972 kPa	965.3 kg/m3
12411 kPa	966.4 kg/m3
12434 kPa	966.4 kg/m3
12457 kPa	966.5 kg/m3
12484 kPa	966.4 kg/m3
12507 kPa	966.5 kg/m3
12530 kPa	966.5 kg/m3
12559 kPa	966.6 kg/m3
12577 kPa	966.5 kg/m3
12604 kPa	966.5 kg/m3
12626 kPa	966.5 kg/m3
12653 kPa	966.7 kg/m3
12675 kPa	966.5 kg/m3
12697 kPa	966.5 kg/m3
12722 kPa	966.6 kg/m3
12741 kPa	966.6 kg/m3
12760 kPa	966.7 kg/m3
12778 kPa	966.8 kg/m3
12793 kPa	966.6 kg/m3
